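Five compound concentrations were applied to cells in 96-well plates for 48 hours; endpoints were derived by simple linear interpolation of the resulting dose-response curve. TGI denotes the concentration required for complete inhibition of growth.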
Tests used:
Experiment in all cases: growth of human tumour cells (NCI), 48 h
RPMI-8226 leukemia = test system: RPMI-8226 leukemia
ACHN renal = test system: ACHN renal
HCC-2998 colon = test system: HCC-2998 colon
MDA-N = test system: MDA-N
SR leukemia = test system: SR leukemia
A498 renal = test system: A498 renal
SF-295 CNS = test system: SF-295 CNS
U251 CNS = test system: U251 CNS
SN12C renal = test system: SN12C renal
HT29 colon = test system: HT29 colon
CCRF-CEM leukemia = test system: CCRF-CEM leukemia
NCI-H460 lung = test system: NCI-H460 lung
IGROV1 ovarian = test system: IGROV1 ovarian
MDA-MB-435 = test system: MDA-MB-435
KM12 colon = test system: KM12 colon
CAKI-1 renal = test system: CAKI-1 renal
OVCAR-8 ovarian = test system: OVCAR-8 ovarian
NCI-H522 lung = test system: NCI-H522 lung
SK-MEL-2 melanoma = test system: SK-MEL-2 melanoma
HS 578T breast = test system: HS 578T breast
HOP-92 NSCLC = test system: HOP-92 NSCLC
SK-OV-3 ovarian = test system: SK-OV-3 ovarian
OVCAR-3 ovarian = test system: OVCAR-3 ovarian
UACC-257 melanoma = test system: UACC-257 melanoma
HCT-116 colon = test system: HCT-116 colon
HL-60(TB) leukemia = test system: HL-60(TB) leukemia
NCI/ADR-RES ovarian = test system: NCI/ADR-RES ovarian
UACC-62 melanoma = test system: UACC-62 melanoma
M14 melanoma = test system: M14 melanoma
PC-3 prostate = test system: PC-3 prostate
EKVX NSCLC = test system: EKVX NSCLC
UO-31 renal = test system: UO-31 renal
MDA-MB-231 breast = test system: MDA-MB-231 breast
SK-MEL-28 melanoma = test system: SK-MEL-28 melanoma
MCF7 breast = test system: MCF7 breast
SK-MEL-5 melanoma = test system: SK-MEL-5 melanoma
COLO 205 colon = test system: COLO 205 colon
SNB-19 CNS = test system: SNB-19 CNS
SF-539 CNS = test system: SF-539 CNS
LOX IMVI melanoma = test system: LOX IMVI melanoma
NCI-H23 lung = test system: NCI-H23 lung
OVCAR-4 ovarian = test system: OVCAR-4 ovarian
BT-549 breast = test system: BT-549 breast
SW-620 colon = test system: SW-620 colon
K-562 leukemia = test system: K-562 leukemia
OVCAR-5 ovarian = test system: OVCAR-5 ovarian
TK-10 renal = test system: TK-10 renal
MOLT-4 leukemia = test system: MOLT-4 leukemia
786-0 renal = test system: 786-0 renal
HCT-15 colon = test system: HCT-15 colon
A549 NSCLC = test system: A549 NSCLC
NCI-H226 lung = test system: NCI-H226 lung
SF-268 CNS = test system: SF-268 CNS
DU-145 prostate = test system: DU-145 prostate

COc1cc(C2S/C(=C/c3ccccc3)C(=O)N2c2cccc(Cl)c2)cc(OC)c1OC (centres undefined)
TGI (RPMI-8226 leukemia): > 100 µM
TGI (ACHN renal): > 100 µM
TGI (HCC-2998 colon): > 100 µM
TGI (MDA-N): > 100 µM
TGI (SR leukemia): 83.3 µM
TGI (A498 renal): > 100 µM
TGI (SF-295 CNS): > 100 µM
TGI (U251 CNS): > 100 µM
TGI (SN12C renal): > 100 µM
TGI (HT29 colon): > 100 µM
TGI (CCRF-CEM leukemia): 73.4 µM
TGI (NCI-H460 lung): > 100 µM
TGI (IGROV1 ovarian): > 100 µM
TGI (MDA-MB-435): 57.8 µM
TGI (KM12 colon): > 100 µM
TGI (CAKI-1 renal): > 100 µM
TGI (OVCAR-8 ovarian): > 100 µM
TGI (NCI-H522 lung): 41.7 µM
TGI (SK-MEL-2 melanoma): > 100 µM
TGI (HS 578T breast): > 100 µM
TGI (HOP-92 NSCLC): > 100 µM
TGI (SK-OV-3 ovarian): > 100 µM
TGI (OVCAR-3 ovarian): > 100 µM
TGI (UACC-257 melanoma): 81.8 µM
TGI (HCT-116 colon): > 100 µM
TGI (HL-60(TB) leukemia): > 100 µM
TGI (NCI/ADR-RES ovarian): > 100 µM
TGI (UACC-62 melanoma): > 100 µM
TGI (M14 melanoma): > 100 µM
TGI (PC-3 prostate): > 100 µM
TGI (EKVX NSCLC): > 100 µM
TGI (UO-31 renal): > 100 µM
TGI (MDA-MB-231 breast): > 100 µM
TGI (SK-MEL-28 melanoma): > 100 µM
TGI (MCF7 breast): > 100 µM
TGI (SK-MEL-5 melanoma): > 100 µM
TGI (COLO 205 colon): > 100 µM
TGI (SNB-19 CNS): > 100 µM
TGI (SF-539 CNS): > 100 µM
TGI (LOX IMVI melanoma): 55.1 µM
TGI (NCI-H23 lung): > 100 µM
TGI (OVCAR-4 ovarian): > 100 µM
TGI (BT-549 breast): 68.4 µM
TGI (SW-620 colon): > 100 µM
TGI (K-562 leukemia): > 100 µM
TGI (OVCAR-5 ovarian): > 100 µM
TGI (TK-10 renal): > 100 µM
TGI (MOLT-4 leukemia): > 100 µM
TGI (786-0 renal): > 100 µM
TGI (HCT-15 colon): > 100 µM
TGI (A549 NSCLC): > 100 µM
TGI (NCI-H226 lung): > 100 µM
TGI (SF-268 CNS): > 100 µM
TGI (DU-145 prostate): 86.8 µM
